The results in this text go back to patent US8278343B2, “Pyrrolidines” (Pfizer Inc., priority 2008, dated 2012).

T1 sequence (P43116 whole entry): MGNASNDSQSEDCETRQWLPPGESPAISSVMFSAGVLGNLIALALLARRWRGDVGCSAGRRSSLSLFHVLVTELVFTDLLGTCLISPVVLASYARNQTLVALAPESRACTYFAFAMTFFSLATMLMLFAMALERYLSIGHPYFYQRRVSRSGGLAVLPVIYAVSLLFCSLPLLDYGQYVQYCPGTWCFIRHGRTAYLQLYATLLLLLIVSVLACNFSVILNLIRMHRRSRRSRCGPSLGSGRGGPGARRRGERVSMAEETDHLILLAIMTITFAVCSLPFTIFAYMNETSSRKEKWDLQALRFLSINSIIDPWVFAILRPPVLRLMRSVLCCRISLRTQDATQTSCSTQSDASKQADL

The assay concerns the target T1, recombinant human EP-2 receptor (Homo sapiens, UniProt P43116).
T1 construct: stably transfected with full length cDNA encoding human Prostaglandin E2; expressed in transfected cells
Description: In vitro antagonist potency against recombinant human prostaglandin E2 (EP-2) receptor in CHO cells (cAMP, Protocol 1). The assay is classed as cell-based. As to conditions: CHO cells expressing recombinant human EP-2 receptor, stimulated with 5 nM PGE2; cAMP readout; Ki by Cheng-Prusoff equation; read-out: EP2 Ki. Here is the method:
1.0 Measurement of In Vitro Antagonist Potency (IC50) of Compounds Against Recombinant Human Prostaglandin E2 Receptor in CHO Cells
The prostaglandin E2 (EP-2) receptor is Gs coupled and agonism of the receptor by PGE2 results in activation of intracellular adenylate cyclase enzymes that synthesise the second messenger signalling molecule, adenosine 3′,5′-cyclic monophosphate (cAMP). CHO cells expressing the recombinant human EP-2 receptor are stimulated with PGE2 (5 nM) equivalent to approximately […] values to give the maximal cAMP signal. Decreases in cAMP levels following treatment of stimulated recombinant EP-2 cells with potential antagonist compounds were measured and potency (IC50) calculated as follows.
A Chinese hamster ovary (CHO) cell line stably transfected with full length cDNA encoding human Prostaglandin E2 was established using standard molecular biology methods. Test compounds were dissolved in dimethyl sulphoxide (DMSO) at 4 mM. 11 point half log unit increment dilution series of test compound were prepared in DMSO then diluted 1 in 40 in a buffer comprised of phosphate buffered saline (PBS) and 0.05% pluronic F-127 surfactant. Freshly cultured cells at 80-90% confluence were harvested and re-suspended in 90% growth media/10% DMSO. The cells were frozen using a planar freezer and stored in frozen aliquots in cryovials in liquid nitrogen until the day of the experiment. A vial of cells was defrosted in a 37° C. water bath for 2 min, then transferred to 10 ml of Dulbecco's Modified Eagle's Medium (DMEM). The cells were then centrifuged for 5 min at 1000 g and the pellet re-suspended at 1,000,000 cells/ml in DMEM. 5,000 cells (5 ul) were added to 5 ul of the compound dilution series in a 384 well assay plate and pre-incubated for 30 min at 37° C. 5 ul of agonist (15 nM PGE2 in PBS to give 5 nM FAC) was added and plates further incubated for 90 min at 37° C. The relative cAMP concentration in each well was then measured using a β-galactosidase enzyme fragment complementation method purchased in kit form as the Discoverx cAMP II kit from GE Healthcare, UK. […] Sigmoidal curves were fitted to plots of log10 inhibitor concentration vs percent effect. IC50 estimates were determined as the concentration of test compound giving an effect half way between the bottom and top asymptotes of the sigmoidal dose response curve. Each experiment included an IC50 determination for the literature compound as a standard to track assay consistency and allow fair comparison between values obtained in different experiments. The EC50 of PGE2 is used in combination with the ligand concentration in the assay to determine Ki values for antagonist dose responses using the Cheng-Prusoff equation. Consequently an agonist dose response curve is carried out for each experiment using the same incubation as the antagonist plate.
Usually Ki stands for the dissociation constant of the complex between target and ligand, obtained from inhibition or displacement. In the case of `O=C(C1CCCC1)N1CCC(COc2ccc(-c3ccc(F)cc3)cc2)(C(=O)O)C1` (single isomer, unassigned) [Example 82], the inhibition constant Ki worked out at 524 nM.
Consider `O=C(C1CC1)N1CCC(COc2ccc(-c3ccc(F)cc3)cc2)(C(=O)O)C1` (single isomer, unassigned) [Example 83], for which the inhibition constant Ki was 119 nM.
Take `O=C(C1CC1)N1CCC(COc2ccc(-c3ccc(F)cc3)cc2)(C(=O)O)C1` (single isomer, unassigned) [Example 84]: the Ki amounted to 438 nM.
Next, `Cc1ccc(OC(=O)N2CCC(COc3ccc(-c4ccc(F)cc4)cc3)(C(=O)O)C2)cc1` (single isomer, unassigned) [Example 86]: 5.36 nM; `Cc1ccc(OC(=O)N2CCC(COc3ccc(-c4ccc(F)cc4)cc3)(C(=O)O)C2)cc1` (single isomer, unassigned) [Example 87]: 225 nM; `O=C(Oc1ccc(Cl)cc1)N1CCC(COc2ccc(-c3ccc(F)cc3)cc2)(C(=O)O)C1` (single isomer, unassigned) [Example 88]: 14.9 nM.
On to `O=C(Oc1ccc(Cl)cc1)N1CCC(COc2ccc(-c3ccc(F)cc3)cc2)(C(=O)O)C1` (single isomer, unassigned) [Example 89], for which the Ki stood at 252 nM.
Take `O=C(Oc1ccc(F)cc1)N1CCC(COc2ccc(-c3ccc(F)cc3)cc2)(C(=O)O)C1` (single isomer, unassigned) [Example 90]: the Ki came to 4.16 nM.
Turning to `O=C(Oc1ccc(F)cc1)N1CCC(COc2ccc(-c3ccc(F)cc3)cc2)(C(=O)O)C1` (single isomer, unassigned) [Example 91], the inhibition constant Ki was 37.4 nM.
On to `COc1ccc(OC(=O)N2CCC(COc3ccc(-c4ccc(F)cc4)cc3)(C(=O)O)C2)cc1` (single isomer, unassigned) [Example 92], for which the Ki was determined as 7.81 nM.
In the case of `COc1ccc(OC(=O)N2CCC(COc3ccc(-c4ccc(F)cc4)cc3)(C(=O)O)C2)cc1` (single isomer, unassigned) [Example 93], the inhibition constant Ki was 165 nM.
As for `COc1ccccc1OC(=O)N1CCC(COc2ccc(-c3ccc(F)cc3)cc2)(C(=O)O)C1` (single isomer, unassigned) [Example 94], the inhibition constant (Ki) was 431 nM.
Take `COc1ccc(NC(=O)N2CCC(COc3ccc(-c4ccc(F)cc4)cc3)(C(=O)O)C2)cc1` (single isomer, unassigned) [Example 95]: the Ki was found to be 1.03 nM.
On to `COc1ccc(NC(=O)N2CCC(COc3ccc(-c4ccc(F)cc4)cc3)(C(=O)O)C2)cc1` (single isomer, unassigned) [Example 96], for which the Ki came out at 178 nM.
Then `COc1cccc(NC(=O)N2CCC(COc3ccc(-c4ccc(F)cc4)cc3)(C(=O)O)C2)c1` (single isomer, unassigned) [Example 97], with 1.89 nM.
In the case of `COc1cccc(NC(=O)N2CCC(COc3ccc(-c4ccc(F)cc4)cc3)(C(=O)O)C2)c1` (single isomer, unassigned) [Example 98], the Ki came to 260 nM.
Then `O=C(Nc1ccccc1Cl)N1CCC(COc2ccc(-c3ccc(F)cc3)cc2)(C(=O)O)C1` (single isomer, unassigned) [Example 99], with 1.99 nM.
`O=C(Nc1ccccc1Cl)N1CCC(COc2ccc(-c3ccc(F)cc3)cc2)(C(=O)O)C1` (single isomer, unassigned) [Example 100]: the inhibitory constant (Ki) was found to be 518 nM.
`O=C(Nc1ccc(Cl)cc1)N1CCC(COc2ccc(-c3ccc(F)cc3)cc2)(C(=O)O)C1` (single isomer, unassigned) [Example 101]: the Ki was 3.59 nM.
Take `O=C(Nc1ccc(Cl)cc1)N1CCC(COc2ccc(-c3ccc(F)cc3)cc2)(C(=O)O)C1` (single isomer, unassigned) [Example 102]: the inhibition constant (Ki) amounted to 160 nM.
Consider `O=C(Nc1ccccc1F)N1CCC(COc2ccc(-c3ccc(F)cc3)cc2)(C(=O)O)C1` (single isomer, unassigned) [Example 103], for which the Ki is 3.77 nM.
Then `O=C(Nc1ccccc1F)N1CCC(COc2ccc(-c3ccc(F)cc3)cc2)(C(=O)O)C1` (single isomer, unassigned) [Example 104], with 392 nM.
`COc1ccccc1C(=O)N1CCC(COc2ccc(-c3ccc(C#N)cn3)cc2)(C(=O)O)C1` (centres unmarked) [Example 3, 3 ((4-(5-cyanopyridin-2-yl)phenoxy)methyl)-1-(2-methoxybenzoyl)pyrrolidine-3-carboxylic acid]: the Ki stood at 24.4 nM.
